Marks after values point to notes of the source that are not given here.
What was measured:
C57BL/6J mice = assay: Acute toxicity: single IP injection, behaviour, histopathology and serum chemistry after 24 h; format: in vivo, mouse; conditions: for Alanine aminotransferase / Albumin / Alkaline phosphatase / Aspartate aminotransferase / Blood urea nitrogen / Cholesterol / Creatinine / Glucose / Lactate dehydrogenase / Total bilirubin / Total protein: serum, acute, mean
Description: For acute-toxicity studies, 2-m old C57BL/6J mice were administered saline-vehicle, 10 mg/kg, or 100 mg/kg CLR01 by a single intraperitoneal (IP) injection. The mice were sacrificed 24-h after the injection. For chronic toxicity studies, 2-m old C57BL/6J mice were administered saline-vehicle, 3 mg/kg, or 10 mg/kg CLR01 by daily IP injection for 30 days. Acute-study mice were visually monitored for 1 h after injection and then every 50 min for 10 min over the first 6 h of the experiment for changes in activity and behavior. The mice also were monitored every 110 min for 10 min during the last 6 h of the experiment until they were sacrificed. Chronic-study mice were monitored for 1 h after injection and then 3 times a day for 10 min each, every day of the first week. During that week there were no appreciable changes in the behavior, appearance, or weight of the mice. Therefore, monitoring was reduced to twice a day during the remainder of the experiment. On all occasions, the mice were monitored for any signs of severe toxicity, including bruising or bleeding, pale mucous membranes or extremities, diarrhea, dehydration, neurological signs, such as difficulty ambulating or paralysis, tachypnea or dyspnea, or abdominal distension.
Following the treatment, mice were anesthetized with pentobarbital and blood was collected by cardiac puncture and placed in tubes containing a clot activator for serum separation (Capiject T-MG tubes, Terumo Medical Products, Somerset, NJ). Then, the lungs were filled through the trachea with 4% paraformaldehyde to prevent collapse, and tissues (brain, heart-lung, liver, kidney, and spleen) were collected and fixed for 72 h in 4% paraformaldehyde at a ratio of ~1:10 tissue:fixative (v/v). Tissues then were transferred into a 70%-ethanol solution and transferred to the UCLA Mouse Pathology Core for paraffin embedding, sectioning, and tissue histopathology analysis. Serum was analyzed by the UCLA Division of Laboratory Animal Medicine (DLAM) Animal Serology & Molecular Diagnostic Laboratory for an 11-panel serum chemical analysis using the ACE Alera Clinical Chemistry system (Alfa Wassermann Diagnostic Technologies, West Caldwell, NJ). The panel included: alanine aminotransferase, aspartate aminotransferase, albumin, alkaline phosphatase, creatinine, total bilirubin, lactate dehydrogenase, blood urea nitrogen, cholesterol, total protein, and glucose.
If CLR01 indeed operates by a process-specific mechanism and remodels the abnormal aggregation of amyloidogenic proteins at substantially lower concentrations than concentrations that would perturb normal physiological processes, one would expect the compound to have a high therapeutic index. To calculate the therapeutic index, a lethal dose must be reached. […] The next rational step was to test the safety margin of CLR01 in vivo. Based on the in vitro and cell culture data, we expected that 100 mg/kg would be lethal to mice and therefore used it as the highest dose in our safety-evaluation experiments. We assessed the safety of CLR01 in 2-m old, male, WT mice either 24 h following a single IP injection of 10 or 100 mg/kg (acute administration) or after daily IP injection of 3 or 10 mg/kg for 30 days (chronic administration). Following euthanasia, serum was collected for chemical analysis and tissues were harvested for histopathology evaluation.

[1] = molecular target: T1, calf intestinal alkaline phosphatase (Bos taurus, UniProt P19111); assay: In vitro dephosphorylation by alkaline phosphatase (inorganic phosphate release); format: in vitro ADME; conditions: up to 100 nmol CLR01, 60 min at 60°C, detection limit 5 nmol
T1 construct: purchased Promega, Madison, Wisconsin
T1 sequence (P19111 20-533): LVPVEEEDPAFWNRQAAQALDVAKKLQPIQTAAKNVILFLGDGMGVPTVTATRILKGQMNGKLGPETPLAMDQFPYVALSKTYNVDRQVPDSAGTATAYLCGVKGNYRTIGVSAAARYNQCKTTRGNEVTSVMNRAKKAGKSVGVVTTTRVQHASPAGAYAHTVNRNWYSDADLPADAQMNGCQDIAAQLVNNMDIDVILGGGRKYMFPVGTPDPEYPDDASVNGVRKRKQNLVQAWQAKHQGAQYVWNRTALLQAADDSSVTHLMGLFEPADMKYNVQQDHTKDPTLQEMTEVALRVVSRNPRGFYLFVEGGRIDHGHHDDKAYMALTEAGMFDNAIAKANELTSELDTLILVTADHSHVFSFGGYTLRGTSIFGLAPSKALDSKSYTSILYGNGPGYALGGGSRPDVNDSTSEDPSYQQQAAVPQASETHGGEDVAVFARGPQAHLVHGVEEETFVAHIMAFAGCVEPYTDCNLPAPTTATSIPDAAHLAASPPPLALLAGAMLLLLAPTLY
Description: Potential dephosphorylation of CLR01 was analyzed by incubating 100 nmol CLR01 with 0.08 units of alkaline phosphatase (ALP; calf intestinal alkaline phosphatase, Promega, Madison, Wisconsin) for 60 min at 60°C. One enzymatic unit is defined as the amount of enzyme required for catalyzing the hydrolysis of 1 μmol of p-nitrophenylphosphate per minute. p-Nitrophenylphosphate disodium salt at 5–50 nmol (Fisher, Waltham, Massachusetts) was used for generation of a standard curve. The amount of inorganic phosphate generated was measured spectrophotometrically using an EnzChek Phosphate Assay kit (Life Technologies, Carlsbad, California) according to the manufacturer’s instructions on a DU-640 spectrophotometer (Beckman Coulter, Brea, California) at λ = 360 nm. Baseline values were subtracted from readings and compared to the standard curve resulting from serial ALP reactions to calculate the amount of inorganic phosphate. Similarly, potential dephosphorylation of CLR01 by brain homogenates was measured. For these experiments, one brain hemisphere was homogenized by sonication in the presence of cOmplete protease-inhibitor cocktail (Roche, Penzberg, Germany). Protein concentration was measured using a BCA Protein Assay Kit (Pierce, Rockford, Illinois). […]

[2] = molecular target: alcohol dehydrogenase (ADH); set-up: method as in PMID 18605724; conditions: ADH concentration of 208 nM; cited from earlier work
[3] = test system: cytochrome P450 system, five major isoforms; set-up: method as in PMID 23183235; conditions: half-maximal inhibition concentration values above levels expected to cause drug–drug interactions; cited from earlier work
[4] = set-up: method as in PMID 23183235; conditions: human liver microsomes; cited from earlier work
[5] = set-up: method as in PMID 21916458, PMID 16218636; conditions: cited from earlier work
transthyretin = test system: transthyretin; set-up: method as in PMID 24459092; conditions: peripheral administration, 1.2 mg/kg/day; cited from earlier work
primary neurons = test system: primary neurons; set-up: method as in PMID 23183235; conditions: cited from earlier work
[6] = 2-m old WT mice, 24 h after single IP dose 10 mg/kg, N = 8
[7] = 2-m old WT mice, 24 h after single IP dose 100 mg/kg, N = 8
[8] = 2-m old WT mice, 24 h after single IP dose 100 mg/kg, N = 8, p < 0.001 vs control
[9] = 2-m old WT mice, 24 h after single IP dose 100 mg/kg, N = 8, p < 0.01 vs control

## O=P(O)(O)Oc1c2c(c(OP(=O)(O)O)c3c1C1CC3c3cc4c(cc31)C1CC4c3ccccc31)C1CC2c2cc3c(cc21)C1CC3c2ccccc21 [CLR01]
C57BL/6J mice; 100 mg/kg single dose
  Single non-lethal dose relative to the efficacious dose: 2,500 fold
C57BL/6J mice; [6]
  Alanine aminotransferase: 36.1 U/L
  Albumin: 2.3 g/dL
  Alkaline phosphatase: 126.1 U/L
  Aspartate aminotransferase: 89.5 U/L
  Blood urea nitrogen: 19.8 mg/dL
  Cholesterol: 91.5 mg/dL
  Creatinine: 0.2 mg/dL
  Glucose: 297.8 mg/dL
  Lactate dehydrogenase: 325.2 U/L
  Total bilirubin: 0.2 mg/dL
  Total protein: 3.7 g/dL
C57BL/6J mice; [7]
  Albumin: 1.9 g/dL
  Alkaline phosphatase: 101.5 U/L
  Blood urea nitrogen: 22.0 mg/dL
  Creatinine: 0.4 mg/dL
  Total bilirubin: 0.3 mg/dL
  Total protein: 3.6 g/dL
C57BL/6J mice; [8]
  Alanine aminotransferase: 1282.9*** U/L
  Glucose: 104.3*** mg/dL
  Lactate dehydrogenase: 2439.8*** U/L
C57BL/6J mice; [9]
  Aspartate aminotransferase: 565.3** U/L
  Cholesterol: 20.8** mg/dL
C57BL/6J mice; single IP 10 mg/kg
  Behavior (levels and type of activity and grooming): behaved indistinguishably from control mice
C57BL/6J mice; single IP 10 mg/kg, 24 h
  Incidence of liver degeneration and necrosis: one of eight
C57BL/6J mice; single IP 100 mg/kg
  Duration of decreased activity and droopy eyelids in some mice: up to 2 h
  Duration of signs of distress following the injection: ~ 30 min
C57BL/6J mice; single IP 100 mg/kg, 2-m old WT mice
  Behavior after injection: obvious signs of distress
C57BL/6J mice; single IP 100 mg/kg, 24 h
  Survival: all the mice in the high-dose group survived
C57BL/6J mice; single IP 100 mg/kg, 24 h, all mice, centrilobular and midlobular regions
  Liver histopathology: liver degeneration and necrosis
C57BL/6J mice; single IP 10 or 100 mg/kg, 24 h
  Histopathology of heart, lung, spleen and brain: indistinguishable from those of control mice
C57BL/6J mice; single IP injection, mice
  Lethal dose: > 100 mg/kg
[1]
  Inorganic phosphate released on incubation with ALP: undetectable levels of inorganic phosphate
[2]
  IC50: 180 µM
[3]
  Inhibition of five major cytochrome P450 isoforms: minimal inhibition
[4]
  Stability: 100%
[5]
  Affinity for Lys residues: low micromolar affinity
transthyretin
  Effect on transthyretin pathology: significant decrease in transthyretin deposition
Primary neurons
  Protection of primary neurons from Aβ-induced effects: protected primary neurons from Aβ-induced decrease in synaptic spine density, basal synaptic activity, and long-term potentiation

— article PMC3996151, “Safety and pharmacological characterization of the molecular tweezer CLR01 – a broad-spectrum inhibitor of amyloid proteins’ toxicity” (BMC Pharmacology & Toxicology, 2014)
